# Reference: PMC8929047, “Synthetic Oligopeptides Mimicking γ-Core Regions of Cysteine-Rich Peptides of Solanum lycopersicum Possess Antimicrobial Activity against Human and Plant Pathogens” (Current Issues in Molecular Biology, 2021)
# Peptide text beside a SMILES is read from it.
# How the values were obtained:
# [1] = test system: Fusarium culmorum VKM F-2303; assay: Spore germination and fungal growth inhibition (absorbance); type: cell-based; conditions: for IC50: Fusarium culmorum, 38 h incubation, absorbance 595 nm, max tested 150 μM, mean ± SD, three replicates; for Inhibition of F. culmorum growth: 38 h
# Protocol: (§1) To study the effect of peptides on spore germination and growth of plant pathogenic fungi, fungal strains from the VKM collection were used: Fusarium culmorum VKM F-2303, F. oxysporum VKM F-137, F. solani VKM F-142, F. verticillioides VKM F-670, Bipolaris sorokiniana VKM F-4006, and Botrytis cinerea VKM F-4549. The fungi were grown on potato dextrose agar at 25 °C for 7–8 days, or for B. sorokiniana and B. cinerea, for 10–12 days. Spores were washed off from the surface of the mycelia with sterile distilled water and filtered through a sterile filter. The filtrate was centrifuged at 6000 rpm for 15 min. The precipitate was washed three times with sterile distilled water, transferred to Eppendorf tubes, and centrifuged at 10,000 rpm for 2 min. 1 mL of sterile aqueous 20% glycerol solution was added to the spores, and the tubes with spores were stored in a freezer at −20 °C.
# (§2) Similar to antimicrobial assays with yeasts and bacteria, the effect of peptides on spore germination and fungal growth was studied by measuring the absorbance of the spore suspension in the presence of the peptide in microtiter plates. The wells of a plate were filled with 90 µL of spore suspension in half-strength potato dextrose broth at a concentration of 2000–3000 spores in 100 µL and 10 µL of aqueous solutions of peptides at final concentrations of 10–300 µM. The concentration of spores in the suspension was determined in the Goryaev chamber. The absorbance was recorded at 595 nm on a FilterMax F5 Multi-Mode Microplate Reader (Molecular Devices, San Jose, CA, USA) after 38 h of incubation, for B. sorokiniana and B. cinerea, after 14, 19, 24, 38, 43, 62 h.
# (§3) Antimicrobial activity was expressed in IC50 values, which denote the concentration required for 50% inhibition of the pathogen growth; this was determined from a graph showing the dependence of antimicrobial activity on peptide concentration.
# (§4) For each pathogen, experiments on the evaluation of antimicrobial activity of the synthetic peptides were performed with three replicates per treatment. Mean values, standard deviations (SD), and the significance of differences (p ≤ 0.05) of the means between treatments and controls (t-test for independent variables) were determined using STATISTICA v. 6.1 software (StatSoft Inc., Tulsa, OK, USA).
# F. oxysporum VKM F-137 = type: cell-based; conditions: Fusarium oxysporum; 38 h incubation, absorbance 595 nm; max tested 150 μM; mean ± SD, three replicates
# Protocol: as §1, §2, §3, §4
# [2] = test system: Cryptococcus neoformans VKM Y-2755; conditions: for IC50: Cryptococcus neoformans, 24 h incubation, 30 °C, absorbance 594 nm, max tested 100 μM, mean ± SD, three replicates; for Inhibition of C. neoformans growth: peptide 300 μM, 24 h, relative to control
# Protocol: (§5) The antimicrobial activity of synthetic peptides was tested against the yeasts Cryptococcus neoformans VKM Y-2755 and Candida albicans VKM Y-2994, as well as against the bacteria Pectobacterium carotovorum subsp. carotovorum VKM B-1247, Pseudomonas savastanoi pv. savastanoi VKM B-1546 and Clavibacter michiganensis subsp. michiganensis VKM Ac-1403. All cultures were obtained from the All-Russian Collection of Microorganisms (VKM). Yeasts were grown on YPD-P medium containing (g/L): glucose–10, peptone–5 and yeast extract–4. Bacterial cultures were grown on medium containing (g/L): yeast extract–1, soya extract–30, aminopeptides (a solution of low-molecular weight peptides and all essential amino acids obtained from the blood of cattle by enzymatic hydrolysis)–60, tryptone–5 and pH 7.2. The microbial cultures were grown on a shaker at 30 °C for 24 h. The optical density of the cultures was measured on a UNICO 1201 (Unico, Dayton, NJ, USA) spectrophotometer at 594 nm. Yeast cultures were diluted 1:10 with water before analysis. […] The antibiotic activity of peptides against yeasts and bacteria was assayed in immunoassay microtiter plates. 10 µL of the tested peptide solution (final concentrations of 10–300 µM) in water, 80 µL of the medium and 10 µL of the microbial suspension were mixed in a well of the microtiter plate and incubated at 30 °C for 24 h; after that, the absorbance of the suspension was measured on an Efos 9305 spectrophotometer (Sapphire, Moscow, Russia) at 594 nm.
# as §3
# as §4, with “STATISTICA” left out
# [3] = test system: Clavibacter michiganensis subsp. michiganensis VKM Ac-1403; type: cell-based; conditions: for IC50: Clavibacter michiganensis, 24 h incubation, 30 °C, absorbance 594 nm, max tested 100 μM, mean ± SD, three replicates
# Protocol: as §5, §3, §4
# F. solani VKM F-142 = type: cell-based, Fusarium solani; conditions: for IC50: Fusarium solani, 38 h incubation, absorbance 595 nm, max tested 150 μM, mean ± SD, three replicates
# Protocol: as §1
# as §2, with “h. […]” for “h.”
# as §4, with “6.1 software (StatSoft Inc., Tulsa, OK, USA).” left out
# [4] = test system: F. verticillioides VKM F-670; type: cell-based, Fusarium verticillioides; conditions: for IC50: Fusarium verticillioides, 38 h incubation, absorbance 595 nm, max tested 180 μM, mean ± SD, three replicates
# Protocol: as §1
# as §2, with “h. […]” for “h.”
# as §4, with “6.1 software (StatSoft Inc., Tulsa, OK, USA).” left out
# [5] = test system: Pectobacterium carotovorum subsp. carotovorum VKM B-1247; assay: Growth inhibition of bacteria in microtiter plates (absorbance); type: cell-based; conditions: peptide 300 μM, 24 h, relative to control
# Protocol: The antimicrobial activity of synthetic peptides was tested against the yeasts Cryptococcus neoformans VKM Y-2755 and Candida albicans VKM Y-2994, as well as against the bacteria Pectobacterium carotovorum subsp. carotovorum VKM B-1247, Pseudomonas savastanoi pv. savastanoi VKM B-1546 and Clavibacter michiganensis subsp. michiganensis VKM Ac-1403. All cultures were obtained from the All-Russian Collection of Microorganisms (VKM). Yeasts were grown on YPD-P medium containing (g/L): glucose–10, peptone–5 and yeast extract–4. […] The optical density of the cultures was measured on a UNICO 1201 (Unico, Dayton, NJ, USA) spectrophotometer at 594 nm. […] 10 µL of the tested peptide solution (final concentrations of 10–300 µM) in water, 80 µL of the medium and 10 µL of the microbial suspension were mixed in a well of the microtiter plate and incubated at 30 °C for 24 h; after that, the absorbance of the suspension was measured on an Efos 9305 spectrophotometer (Sapphire, Moscow, Russia) at 594 nm. […]
# as §4, with “6.1 software (StatSoft Inc., Tulsa, OK, USA).” left out
# [6] = test system: Botrytis cinerea VKM F-4549; type: cell-based; conditions: for Inhibition of B. cinerea growth: peptide 300 μM, relative to control; for B. cinerea growth dynamics in the presence of peptide: peptide 60 μM, absorbance after 14-62 h, control H2O
# Protocol: as §1, §2, §3, §4
# [7] = test system: Bipolaris sorokiniana VKM F-4006; assay: Spore germination and fungal growth inhibition (absorbance); type: cell-based; conditions: for Inhibition of B. sorokiniana growth: peptide 300 μM, relative to control
# Protocol: as §1, §2, §3, §4
# Fusarium species = assay: Spore germination and fungal growth inhibition, statement for all tested Fusarium species; type: cell-based; conditions: peptide 300 μM, relative to control
# Protocol: as §1
# as §2, with “h. […]” for “h.”
# as §4, with “6.1 software (StatSoft Inc., Tulsa, OK, USA).” left out
Molecule,IC50 [1] [µM],IC50 (F. oxysporum VKM F-137) [µM],IC50 [2] [µM],IC50 [3] [µM],Inhibition of B. cinerea growth [6],Suppression of Fusarium species (Fusarium species),further results
CC(C)C[C@H](NC(=O)[C@H](CC(N)=O)NC(=O)[C@H](CCC(N)=O)NC(=O)[C@H](CCCNC(=N)N)NC(=O)[C@H](CO)NC(=O)[C@H](CO)NC(=O)[C@H](CCCCN)NC(=O)[C@H](CO)NC(=O)[C@H](CS)NC(=O)[C@H](CCCNC(=N)N)NC(=O)[C@@H](NC(=O)[C@H](CCCCN)NC(=O)[C@H](CS)NC(=O)[C@H](CO)NC(=O)CN)[C@@H](C)O)C(=O)N[C@@H](CS)C(=O)N[C@@H](CC(N)=O)C(=O)N[C@@H](CCCNC(=N)N)C(=O)O [γ47-64SlSN10] (H-GSCKTRCSKSSRQNLCNR-OH),127 ± 8.5,43.8 ± 6.8,,,,,
CC(C)C[C@H](NC(=O)[C@H](CCCNC(=N)N)NC(=O)[C@H](CS)NC(=O)[C@H](CCCNC(=N)N)NC(=O)[C@H](C)NC(=O)[C@H](C)NC(=O)[C@H](CS)NC(=O)[C@H](C)NC(=O)CN)C(=O)N[C@@H](CO)C(=O)N[C@@H](CO)C(=O)N[C@@H](CCCNC(=N)N)C(=O)N1CCC[C@H]1C(=O)N[C@@H](CCCNC(=N)N)C(=O)N[C@@H](CC(C)C)C(=O)N[C@@H](CS)C(=O)N[C@@H](Cc1c[nH]cn1)C(=O)N[C@@H](CCCNC(=N)N)C(=O)O [γ48-65SlSN2] (H-GACAARCRLSSRPRLCHR-OH),42.1 ± 6.5,57.1 ± 11.6,4.2 ± 0.6,23.1 ± 2.7,,,"IC50 (F. solani VKM F-142): 47.5 ± 2 µM; Maximum inhibition of F. solani (F. solani VKM F-142; peptide 150 μM, 38 h): 69%; IC50 [4]: 152 ± 7.7 µM; Inhibition of F. culmorum growth ([1]; peptide 75 μM): 79%"
C[C@@H](O)[C@H](NC(=O)[C@H](CS)NC(=O)[C@H](Cc1ccccc1)NC(=O)[C@H](CS)NC(=O)[C@H](CCCNC(=N)N)NC(=O)[C@H](CCCNC(=N)N)NC(=O)[C@H](CCCNC(=N)N)NC(=O)[C@H](Cc1ccccc1)NC(=O)CNC(=O)[C@H](CCCNC(=N)N)NC(=O)[C@H](CS)NC(=O)[C@H](CC(=O)O)NC(=O)CNC(=O)CNC(=O)[C@H](CO)NC(=O)[C@@H](N)Cc1ccccc1)C(=O)N[C@@H](CCCNC(=N)N)C(=O)O [γ58-74SlDEFL2] (H-FSGGDCRGFRRRCFCTR-OH),44.8 ± 4,,11.5 ± 2.5,19.8 ± 2.5,31–45%,,Inhibition of C. neoformans growth [2]: 90%; Inhibition of P. carotovorum growth [5]: 48%
C[C@@H](O)[C@H](NC(=O)[C@H](CS)NC(=O)[C@H](Cc1ccccc1)NC(=O)[C@H](CS)NC(=O)[C@H](CCCNC(=N)N)NC(=O)[C@H](CCCNC(=N)N)NC(=O)[C@H](CCCNC(=N)N)NC(=O)[C@H](Cc1ccccc1)NC(=O)CNC(=O)[C@H](CCCNC(=N)N)NC(=O)[C@H](CS)NC(=O)[C@H](CC(N)=O)NC(=O)CNC(=O)CNC(=O)[C@@H](NC(=O)[C@@H](N)Cc1ccccc1)[C@@H](C)O)C(=O)N[C@@H](CCCNC(=N)N)C(=O)O [γ58-74SlDEFL4] (H-FTGGNCRGFRRRCFCTR-OH),42.3 ± 5.7,125 ± 3.7,8.1 ± 2.4,21.5 ± 5.1,31–45%,,
CC[C@H](C)[C@H](NC(=O)[C@H](CCC(=O)O)NC(=O)[C@@H]1CCCN1C(=O)[C@H](CS)NC(=O)[C@H](CS)NC(=O)CNC(=O)[C@@H](N)CCCCN)C(=O)N[C@@H](C)C(=O)NCC(=O)N[C@@H](CC(C)C)C(=O)N[C@@H](CC(C)C)C(=O)N[C@@H](CC(=O)O)C(=O)N[C@@H](CO)C(=O)N[C@@H](CC(N)=O)C(=O)N1CCC[C@H]1C(=O)N[C@H](C(=O)N[C@@H](CS)C(=O)O)[C@@H](C)CC [γ70-86SlLTPg2.8] (H-KGCCPEIAGLLDSNPIC-OH; N-terminus and C-terminus assumed),,,,,,,B. cinerea growth dynamics in the presence of peptide [6]: insensitive
CC(C)C[C@H](NC(=O)CN)C(=O)N[C@@H](CS)C(=O)N[C@@H](CCCCN)C(=O)N[C@@H](Cc1ccc(O)cc1)C(=O)N[C@@H](CCCNC(=N)N)C(=O)N[C@@H](CS)C(=O)N[C@@H](CO)C(=O)N[C@@H](CC(C)C)C(=O)N[C@@H](Cc1c[nH]cn1)C(=O)N[C@@H](CO)C(=O)N[C@@H](CCCNC(=N)N)C(=O)N1CCC[C@H]1C(=O)N[C@@H](CC(N)=O)C(=O)N[C@H](C(=O)N[C@@H](CS)C(=O)N[C@@H](Cc1ccccc1)C(=O)N[C@@H](CCCNC(=N)N)C(=O)O)C(C)C [γ89-106SlSN9] (H-GLCKYRCSLHSRPNVCFR-OH),42.4 ± 3.5,,5.1 ± 1.2,24 ± 2.4,,,"IC50 (F. solani VKM F-142): 139 ± 6.1 µM; IC50 [4]: 99.8 ± 10 µM; Maximum inhibition of F. verticillioides ([4]; peptide 180 μM, 38 h): 62%; Inhibition of F. culmorum growth ([1]; peptide 50 μM): 72%"
C[C@@H](O)[C@H](NC(=O)[C@H](CCCCN)NC(=O)[C@@H]1CCCN1C(=O)[C@@H](NC(=O)[C@H](Cc1ccccc1)NC(=O)[C@H](CO)NC(=O)[C@H](CS)NC(=O)[C@H](Cc1ccc(O)cc1)NC(=O)CNC(=O)[C@H](Cc1ccccc1)NC(=O)[C@@H]1CCCN1C(=O)[C@@H](N)CCCNC(=N)N)[C@@H](C)O)C(=O)N[C@@H](CS)C(=O)O [γ92-104SlMEG2] (H-RPFGYCSFTPKTC-OH; N-terminus and C-terminus assumed),,,,,36–40%,insensitive,"Inhibition of C. neoformans growth [2]: with high efficiency; Inhibition of C. michiganensis growth ([3]; peptide 300 μM, 24 h, relative to control): with high efficiency; B. sorokiniana growth dynamics in the presence of peptide ([7]; peptide 60 μM, effect observed after 38 h of spore incubation, control H2O): significant growth suppression; B. cinerea growth dynamics in the presence of peptide [6]: insensitive"
"SGCCTQLGTVVKNNPEC [γ56-72SlLTPg2.4, synthetic 17-residue peptide corresponding to the γ-core region of tomato nsLTP SlLTPg2.4]",,,,,inactive,inactive,Inhibition of B. sorokiniana growth [7]: inactive
"SGCCTQLSTVVDEKSEC [γ53-69SlLTPg2.5, synthetic 17-residue peptide corresponding to the γ-core region of tomato nsLTP SlLTPg2.5]",,,,,inactive,inactive,Inhibition of B. sorokiniana growth [7]: inactive
